Measurements published in ChEMBL document CHEMBL1136704, “3-amino-4-sulfonylpyridinone acetamide and related pyridothiadiazine thrombin inhibitors” (Bioorg Med Chem Lett, 2003).

What was measured:
Prothrombin = Prothrombin (Homo sapiens, UniProt P00734); test: Inhibition of human thrombin
[1] = Half life period was determined; settings: dog
[2] = Pharmacokinetic property (Area under curve); type: ADME
Serine protease 1 = Serine protease 1 (Homo sapiens, UniProt P07477); test: Inhibitory activity against human trypsin
Homo sapiens = species: Homo sapiens; test: Anticoagulant potency, activated partial thromboplastin time assay; type: functional
[3] = Protein binding activity of compound in human plasma; % Free; type: ADME, cell-free
[4] = Cmax value in dog; type: ADME, organism-based, Canis lupus familiaris; settings: in vivo
Rattus norvegicus = species: Rattus norvegicus; test: Final plasma concentration in the rat ferric chloride thrombosis model; settings: in vivo
[5] = Cmax value in dogs after oral administration at 1 mg/kg; type: ADME, organism-based, Canis lupus familiaris; design: dose 1 mg/kg, route oral; settings: dog, in vivo
[6] = Pharmacokinetic property in dogs after oral administration at 1 mg/kg; type: ADME, organism-based, Canis lupus familiaris; design: dose 1 mg/kg, route oral; settings: dog, in vivo
[7] = Half life period in dogs after oral administration at 1 mg/kg; type: ADME, organism-based, Canis lupus familiaris; design: dose 1 mg/kg, route oral; settings: dog, in vivo

Chain of Serine protease 1 (P07477 whole entry): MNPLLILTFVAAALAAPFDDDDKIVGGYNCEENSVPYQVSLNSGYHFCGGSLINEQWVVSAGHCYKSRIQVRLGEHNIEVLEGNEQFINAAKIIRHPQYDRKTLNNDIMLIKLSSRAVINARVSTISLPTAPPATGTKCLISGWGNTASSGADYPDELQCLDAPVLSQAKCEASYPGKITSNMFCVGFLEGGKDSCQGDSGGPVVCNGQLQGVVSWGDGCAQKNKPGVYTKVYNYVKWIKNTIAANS

Ki (Serine protease 1)	Free [3]	Cmax [5]	AUC [6]	half-life [7]	Structure (SMILES)	Ki (Prothrombin)	half-life [1]	AUC [2]	Concentration (Homo sapiens)	Cmax [4]	concentration (Rattus norvegicus)
6100 nM	25%	–	–	–	Cc1nc(N)ccc1CNC(=O)Cn1c(C)cc2c(c1=O)NCN(CC1CC1)S2(=O)=O	2.1 nM	2.27 h	2.14 µM·h	0.79 µM	590 nM	–
10000 nM	–	–	–	–	Cc1nc(N)ccc1CNC(=O)Cn1c(C)cc2c(c1=O)NCN(C1CC1)S2(=O)=O	–	–	–	0.75 µM	–	–
6300 nM	–	–	–	–	Cc1nc(N)ccc1CNC(=O)Cn1c(C)cc2c(c1=O)NCN(C1CCC1)S2(=O)=O	–	–	–	1.11 µM	–	–
1600 nM	–	–	–	–	Cc1nc(N)ccc1CNC(=O)Cn1c(C)cc2c(c1=O)NCN(CC1CCC1)S2(=O)=O	–	–	–	0.92 µM	–	–
1100 nM	45%	–	–	–	Cc1nc(N)ccc1CNC(=O)Cn1c(C)cc(S(=O)(=O)NC2CCC2)c(N)c1=O	–	–	–	0.35 µM	–	–

Continued, molecule first:

Structure (SMILES)	Ki (Serine protease 1)	Free [3]	Cmax [5]	AUC [6]	half-life [7]	Ki (Prothrombin)	half-life [1]	AUC [2]	Concentration (Homo sapiens)	Cmax [4]	concentration (Rattus norvegicus)
Cc1nc(N)ccc1CNC(=O)Cn1c(C)cc(S(=O)(=O)CC2CC2)c(N)c1=O	1900 nM	70%	–	–	–	1.8 nM	1.1 h	0.8 µM·h	0.4 µM	370 nM	550 nM
Cc1ccc(S(=O)(=O)c2cc(C)n(CC(=O)NCc3ccc(N)nc3C)c(=O)c2N)cc1	800 nM	–	–	–	–	94 nM	–	–	–	–	–
Cc1nc(N)ccc1CNC(=O)Cn1c(C)cc(S(=O)(=O)NC2CC2)c(N)c1=O	2900 nM	–	–	–	–	–	–	–	0.85 µM	–	–
Cc1nc(N)ccc1CNC(=O)Cn1c(C)cc(S(=O)(=O)NCC2CCC2)c(N)c1=O	740 nM	23%	–	–	–	0.75 nM	–	–	0.47 µM	–	640 nM
Cc1nc(N)ccc1CNC(=O)Cn1c(C)cc(S(=O)(=O)NCC2CC2)c(N)c1=O	1000 nM	53%	–	–	–	–	–	–	0.75 µM	–	–
Cc1nc(N)ccc1CNC(=O)Cn1c(C)cc(S(=O)(=O)c2ccccc2)c(N)c1=O	500 nM	19%	–	–	–	3.8 nM	–	–	0.66 µM	–	570 nM
Cc1nc(N)ccc1CNC(=O)Cn1c(C)cc(S(=O)(=O)C2CC2)c(N)c1=O	2800 nM	–	–	–	–	17 nM	–	–	1.64 µM	–	–
Cc1nc(N)ccc1CNC(=O)Cn1c(C)cc(S(=O)(=O)C2CCCCC2)c(N)c1=O	260 nM	38%	–	–	–	3 nM	–	–	0.75 µM	–	650 nM
Cc1nc(N)ccc1CNC(=O)Cn1c(C)cc(S(=O)(=O)CC2CCCC2)c(N)c1=O	630 nM	29%	–	–	–	1.2 nM	–	–	0.4 µM	–	530 nM
Cc1nc(N)ccc1CNC(=O)Cn1c(C)cc(S(=O)(=O)CC2CCC2)c(N)c1=O	550 nM	45%	–	–	–	0.2 nM	0.783 h	2.58 µM·h	0.23 µM	570 nM	680 nM
Cc1nc(N)ccc1CNC(=O)Cn1c(C)cc(S(=O)(=O)c2cccs2)c(N)c1=O	340 nM	40%	–	–	–	1.7 nM	–	–	0.39 µM	–	430 nM
Cc1nc(N)ccc1CNC(=O)Cn1c(C)cc(S(=O)(=O)Cc2ccccc2)c(N)c1=O	1600 nM	22%	450 nM	0.62 µM·h	1.05 h	–	–	–	0.47 µM	–	–
